≈ marks a conversion by molar mass, not a printed value.
Assays:
[1] = target: Adenosine receptor A2a (Homo sapiens, UniProt P29274); assay: Binding affinity to human adenosine A2A receptor
[2] = species on record: Homo sapiens; assay: Selectivity of human adenosine A2A receptor over human adenosine A1 receptor
[3] = test system: Rattus norvegicus; assay: Inhibition of haloperidol-induced catalepsy in rat at 1 mg/kg, po after 1 hr; format: functional
[4] = test system: Rattus norvegicus; assay: Inhibition of haloperidol-induced catalepsy in rat at 1 mg/kg, po after 4 hrs; format: functional
[5] = target: Adenosine receptor A2a (Rattus norvegicus, UniProt P30543); assay: Binding affinity to rat adenosine A2A receptor
[6] = test system: Rattus norvegicus; assay: Reversal of haloperidol-induced catalepsy in orally dosed rat after 1 hr; format: functional; details: po, read-out: MED
[7] = target: T1, Adenosine receptor A1 (Homo sapiens, UniProt P30542); assay: Binding affinity to human adenosine A1 receptor
T1 sequence (P30542 whole entry): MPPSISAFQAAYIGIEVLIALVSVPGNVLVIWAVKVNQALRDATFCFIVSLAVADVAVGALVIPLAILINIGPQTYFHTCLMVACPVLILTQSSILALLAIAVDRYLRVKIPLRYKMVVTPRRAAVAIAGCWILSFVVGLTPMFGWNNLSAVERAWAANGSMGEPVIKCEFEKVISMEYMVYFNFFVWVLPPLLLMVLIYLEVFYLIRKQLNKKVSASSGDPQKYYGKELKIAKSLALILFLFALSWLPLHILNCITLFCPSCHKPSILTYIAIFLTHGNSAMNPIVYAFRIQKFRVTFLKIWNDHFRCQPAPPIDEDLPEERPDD

[8] = target: T2, Adenosine receptor A2b (Homo sapiens, UniProt P29275); assay: Binding affinity to human adenosine A2B receptor
T2 sequence (P29275 whole entry): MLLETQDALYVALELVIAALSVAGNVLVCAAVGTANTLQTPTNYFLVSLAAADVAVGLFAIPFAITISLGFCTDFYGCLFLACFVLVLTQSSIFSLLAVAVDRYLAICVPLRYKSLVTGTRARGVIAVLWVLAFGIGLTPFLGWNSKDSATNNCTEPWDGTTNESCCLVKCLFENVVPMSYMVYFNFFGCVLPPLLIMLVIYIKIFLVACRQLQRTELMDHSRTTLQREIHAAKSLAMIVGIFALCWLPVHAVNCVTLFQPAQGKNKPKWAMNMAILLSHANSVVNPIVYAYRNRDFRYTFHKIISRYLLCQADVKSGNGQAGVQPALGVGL

[9] = target: T3, Adenosine receptor A3 (Homo sapiens, UniProt P0DMS8); assay: Binding affinity to human adenosine A3 receptor
T3 sequence (P0DMS8 whole entry): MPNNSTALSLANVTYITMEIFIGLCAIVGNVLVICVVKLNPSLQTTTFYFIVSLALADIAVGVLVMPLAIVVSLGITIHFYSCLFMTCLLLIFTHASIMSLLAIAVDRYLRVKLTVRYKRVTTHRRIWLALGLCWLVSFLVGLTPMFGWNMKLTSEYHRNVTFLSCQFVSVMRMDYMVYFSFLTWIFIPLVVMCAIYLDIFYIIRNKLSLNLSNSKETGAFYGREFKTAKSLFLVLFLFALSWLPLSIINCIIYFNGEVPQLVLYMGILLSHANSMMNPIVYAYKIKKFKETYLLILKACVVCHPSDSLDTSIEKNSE

[10] = Solubility in water at pH 5.1; format: physicochemical
[11] = Solubility in 0.01 N Hcl; format: physicochemical; details: buffer
[12] = Cmax in rat at 3 mg/kg, po; format: ADME, organism-based; design: dose 3 mg/kg, route oral; details: in vivo
[13] = Tmax in rat at 3 mg/kg, po; format: ADME, organism-based; design: dose 3 mg/kg, route oral; details: in vivo
[14] = AUC in rat at 3 mg/kg, po; format: ADME, organism-based; design: dose 3 mg/kg, route oral; details: plasma
[15] = Half life in rat at 1 mg/kg, iv; format: ADME, organism-based; design: dose 1 mg/kg, route intravenous; details: in vivo
[16] = Clearance in rat at 1 mg/kg, iv; format: ADME, organism-based; design: dose 1 mg/kg, route intravenous; details: in vivo
[17] = Volume of distribution at steady state in rat at 1 mg/kg, iv; format: ADME, organism-based; design: dose 1 mg/kg, route intravenous; details: in vivo, read-out: Vdss
[18] = Oral bioavailability in rat at 3 mg/kg; format: ADME, organism-based; details: in vivo
[19] = Ratio of drug level in brain to plasma in rat; format: ADME
[20] = species on record: Homo sapiens; assay: Selectivity of human adenosine A2A receptor over human adenosine A2B receptor
[21] = species on record: Homo sapiens; assay: Selectivity of human adenosine A2A receptor over human adenosine A3 receptor
[22] = target: Adenosine receptor A2a (Rattus norvegicus) (UniProt P30543); assay: Antagonist activity at rat adenosine A2A receptor assessed as CGS 21680-induced inhibition of adenylate cyclase activity by cell-based assay; format: functional
Adenosine receptor A2a (Rattus norvegicus), sequence (P30543 whole entry): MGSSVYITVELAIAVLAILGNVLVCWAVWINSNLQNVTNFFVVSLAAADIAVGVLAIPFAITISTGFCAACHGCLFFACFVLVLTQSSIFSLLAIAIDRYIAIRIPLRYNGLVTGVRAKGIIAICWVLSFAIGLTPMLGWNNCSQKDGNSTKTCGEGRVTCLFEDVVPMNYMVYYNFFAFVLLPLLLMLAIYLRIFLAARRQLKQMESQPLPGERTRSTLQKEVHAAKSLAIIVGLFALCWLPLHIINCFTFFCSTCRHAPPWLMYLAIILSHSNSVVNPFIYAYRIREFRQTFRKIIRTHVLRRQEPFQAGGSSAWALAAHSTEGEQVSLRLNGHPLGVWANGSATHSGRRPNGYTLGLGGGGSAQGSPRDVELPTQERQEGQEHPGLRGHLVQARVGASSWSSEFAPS

Adenosine receptor A2a (Homo sapiens, UniProt P29274), sequence (P29274 whole entry): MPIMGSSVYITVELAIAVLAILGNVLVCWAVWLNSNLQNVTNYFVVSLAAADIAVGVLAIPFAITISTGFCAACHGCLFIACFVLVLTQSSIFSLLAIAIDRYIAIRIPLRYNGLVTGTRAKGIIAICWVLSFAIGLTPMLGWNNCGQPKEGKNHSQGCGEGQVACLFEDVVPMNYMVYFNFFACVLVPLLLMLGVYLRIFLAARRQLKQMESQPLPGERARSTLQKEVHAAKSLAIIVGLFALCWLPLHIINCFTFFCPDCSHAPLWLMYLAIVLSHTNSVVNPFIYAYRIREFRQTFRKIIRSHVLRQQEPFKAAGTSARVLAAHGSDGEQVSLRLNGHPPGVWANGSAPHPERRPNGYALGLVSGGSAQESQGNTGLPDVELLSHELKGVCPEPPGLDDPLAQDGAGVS
Adenosine receptor A2a (Rattus norvegicus, UniProt P30543), sequence (P30543 whole entry): as the sequence (P30543 whole entry) above

Row | Ki [1] [nM] | Ratio Ki [2] | Structure (SMILES) | inhibition in vivo at 1 mg/kg [3] [%] | inhibition in vivo at 1 mg/kg [4] [%] | further results
1 | 0.6 | > 1600 | Nc1nc2c(cnn2CCN2CCN(c3ccc(F)cc3F)CC2)c2nc(-c3ccco3)nn12 | 75 | 80 | 
2 | 0.5 | 1350 | Nc1nc2c(cnn2CCN2CCN(c3ccc(Cl)cc3)CC2)c2nc(-c3ccco3)nn12 | 11 |  | 
3 | 1.6 | 343 | Nc1nc2c(cnn2CCN2CCN(c3ccccc3)CC2)c2nc(-c3ccco3)nn12 | 52 | 0 | 
4 | 2.1 | 571 | N#Cc1ccc(N2CCN(CCn3ncc4c3nc(N)n3nc(-c5ccco5)nc43)CC2)cc1 | 0 |  | 
5 | 2.2 | 523 | C[S+]([O-])COc1ccc(N2CCN(CCn3ncc4c3nc(N)n3nc(-c5ccco5)nc43)CC2)cc1 (stereo unspecified) | 30 | 5 | 
6 |  |  | COCCOc1ccc(N2CCN(CCn3ncc4c3nc(N)n3nc(-c5ccco5)nc43)CC2)cc1 [PRELADENANT] | 77 | 70 | Ki [5]: 2.5 nM; minimal effective dose [6]: 0.3 mg/kg; Ki [7]: > 1000 nM; Ki [8]: > 1700 nM; Ki [9]: > 1000 nM; solubility [10]: 0.2 µM (≈ 0.101 µg/mL); solubility [11]: 2000 µM (≈ 1010 µg/mL)
7 | 0.6 | 1520 | Nc1nc2c(cnn2CCN2CCN(c3ccc(OCCO)cc3)CC2)c2nc(-c3ccco3)nn12 | 15 | 25 | 
8 |  |  | COCCOc1ccc(N2CCN(CCn3ncc4c3nc(N)n3nc(-c5ccco5)nc43)CC2)cc1.Cl |  |  | Cmax [12]: 762 nM; Tmax [13]: 0.25 h; AUC [14]: 1.56 µM·h; half-life [15]: 2.1 h; clearance [16]: 37 mL/min/kg; Vd [17]: 2.6 L/kg; bioavailability [18]: 57%; Kp [19]: 1
9 | 0.8 | 427 | CC(=O)COc1ccc(N2CCN(CCn3ncc4c3nc(N)n3nc(-c5ccco5)nc43)CC2)cc1 | 15 | 10 | 
10 | 1.4 | 848 | CCOc1ccc(N2CCN(CCn3ncc4c3nc(N)n3nc(-c5ccco5)nc43)CC2)cc1 | 27 |  | 
11 | 1.3 | 186 | Nc1nc2c(cnn2CCN2CCN(c3ccc(O)cc3)CC2)c2nc(-c3ccco3)nn12 | 0 |  | 
12 | 1 | 101 | Nc1nc2c(cnn2CCN2CCN(c3ccc(F)cc3)CC2)c2nc(-c3ccco3)nn12 | 8 |  | 
13 | 1.4 | 169 | Nc1nc2c(cnn2CCN2CCN(c3ccc(F)c(F)c3)CC2)c2nc(-c3ccco3)nn12 | 45 |  | 
14 | 1.6 | 539 | COC(C)COc1ccc(N2CCN(CCn3ncc4c3nc(N)n3nc(-c5ccco5)nc43)CC2)cc1 (racemic) | 55 | 20 | 
15 | 0.6 | 1500 | Nc1nc2c(cnn2CCN2CCN(c3ccc(F)c(F)c3F)CC2)c2nc(-c3ccco3)nn12 | 65 | 40 | 
16 | 0.6 | 894 | Nc1nc2c(cnn2CCN2CCN(c3ccccc3F)CC2)c2nc(-c3ccco3)nn12 | 20 | 25 | 
17 | 1.1 | 319 | Nc1nc2c(cnn2CCN2CCN(c3c(F)cc(F)cc3F)CC2)c2nc(-c3ccco3)nn12 | 65 | 75 | 
18 | 0.6 | 1160 | COCCCOc1ccc(N2CCN(CCn3ncc4c3nc(N)n3nc(-c5ccco5)nc43)CC2)cc1 | 8 | 2 | 
19 |  |  | COCCOc1ccc(N2CCN(CCn3ncc4c3nc(N)n3nc(-c5ccco5)nc43)CC2)cc1 |  |  | Activity [20]: > 1000; Activity [21]: > 1000; Kb [22]: 0.7 nM

Row | Structure (SMILES) | Ki [1] [nM] | Ratio Ki [2] | inhibition in vivo at 1 mg/kg [3] [%] | inhibition in vivo at 1 mg/kg [4] [%] | further results
20 | Nc1nc2c(cnn2CCN2CCN(c3ccc(OCCOC4CC4)cc3)CC2)c2nc(-c3ccco3)nn12 | 0.6 | 930 | 59 | 30 | 
21 | COCCOc1ccc(N2CCN(CCn3ncc4c3nc(N)n3nc(-c5ccco5)nc43)CC2)c(F)c1 | 0.4 | 1740 | 60 | 70 | 
